Data set [1] can be described thus: Therapeutic index, ratio EC50 for human MRC5 SV2 cells to EC50 for Trypanosoma cruzi Tulahuen CL2 intracellular amastigotes. It counts as toxicity, cell-based. The following applies: read-out: Ratio EC50.
In another data set the test system is Trypanosoma cruzi. In words: Antiparasitic activity against Trypanosoma cruzi Tulahuen CL2 intracellular amastigotes expressing beta-galactosidase infected in human MRC5 SV2 cells after 7 days by chlorophenol red beta-D-galactopyranoside-based spectrophotometric analysis. It counts as functional, organism-based. To be noted: Tulahuen CL2, MRC-5 SV2, 168 h, read-out: EC50.

Data set [2] can be described thus: Cytotoxicity against human MRC5 SV2 cells assessed as reduction in cell viability after 3 days resazurin-based fluorimetric assay. The following applies: MRC-5 SV2, 72 h. A general note: The colour change of resazurin is a common sign of viable cells or microbes.

Selectivity ratio and EC50 data for 20 molecules are collected here from ChEMBL document CHEMBL4382200, “Discovery of Novel 7-Aryl 7-Deazapurine 3'-Deoxy-ribofuranosyl Nucleosides with Potent Activity against Trypanosoma cruzi” (J Med Chem, 2018).

Some results are limits rather than exact numbers.

As a reminder, the EC50 is the midpoint of the concentration-response curve.

Regarding `CCc1ccc(-c2cn([C@@H]3O[C@H](CO)C[C@H]3O)c3ncnc(N)c23)cc1`, in data set [1], the selectivity ratio was determined as 18. Besides, the EC50 was 1.04 µM in the data set with Trypanosoma cruzi and 18.4 µM in data set [2].
With `Nc1ncnc2c1c(-c1ccc(Cl)c(F)c1)cn2[C@@H]1O[C@H](CO)C[C@H]1O`, the selectivity ratio in data set [1] amounted to 260. Moreover, the 50% effective concentration (EC50) in the data set with Trypanosoma cruzi was 0.071 µM; in data set [2] it was 18.6 µM.
The matching figures for `COc1ccc(-c2cn([C@@H]3O[C@H](CO)C[C@H]3O)c3ncnc(N)c23)cc1Cl`: greater than 19, 3.3 µM and greater than 64 µM.
The matching figures for `Nc1ncnc2c1c(-c1ccc(F)c(Cl)c1)cn2[C@@H]1O[C@H](CO)C[C@H]1O`: 150, 0.3 µM and 45.5 µM.
In the same order, the values of `Nc1ncnc2c1c(-c1ccc(OC(F)(F)F)cc1)cn2[C@@H]1O[C@H](CO)C[C@H]1O` are 29, 1.39 µM and 40.4 µM.
Take `Nc1ncnc2c1c(-c1cccc(Cl)c1)cn2[C@@H]1O[C@H](CO)C[C@H]1O`: in data set [1], the selectivity ratio came to 37. For the same molecule, the values for the EC50 (in the data set with Trypanosoma cruzi; in data set [2]) were 0.97 µM and 36.1 µM, respectively.
The matching figures for `Nc1ncnc2c1c(-c1ccccc1)cn2[C@@H]1O[C@H](CO)C[C@H]1O`: 24, 2.57 µM and 61.8 µM.
The matching figures for `Nc1ncnc2c1c(-c1cc(Cl)cc(Cl)c1)cn2[C@@H]1O[C@H](CO)C[C@H]1O`: 55, 0.55 µM and 30.2 µM.
In the same order, the values of `Nc1ncnc2c1c(-c1cccc(C(F)(F)F)c1)cn2[C@@H]1O[C@H](CO)C[C@H]1O` are 4.4, 11.2 µM and 49.6 µM.
Consider `Nc1ncnc2c1c(-c1ccc(F)cc1)cn2[C@@H]1O[C@H](CO)C[C@H]1O`, for which the selectivity ratio in data set [1] is greater than 100. Besides, the EC50 in the data set on Trypanosoma cruzi was 0.64 µM; in data set [2], greater than 64 µM.
The matching figures for `CC(C)c1ccc(-c2cn([C@@H]3O[C@H](CO)C[C@H]3O)c3ncnc(N)c23)cc1`: 2.9, 8.48 µM and 24.9 µM.
For `Nc1ncnc2c1c(-c1ccc(C(F)(F)F)cc1)cn2[C@@H]1O[C@H](CO)C[C@H]1O`, the selectivity ratio in data set [1] is 76. The concentration giving a half-maximal response (EC50) turned out to be 0.53 µM in the data set with Trypanosoma cruzi and 40 µM in data set [2].
In the same order, the values of `Nc1ncnc2c1c(C1CCCCC1)cn2[C@@H]1O[C@H](CO)C[C@H]1O` are greater than 3, 20.9 µM and greater than 64 µM.
Turning to `Nc1ncnc2c1c(C1=CCCCC1)cn2[C@@H]1O[C@H](CO)C[C@H]1O`, the selectivity ratio in data set [1] was greater than 2. In addition, the figures for the EC50 (in the data set on Trypanosoma cruzi; in data set [2]) were 31.8 µM and greater than 64 µM, respectively.
The matching figures for `Cc1ccc(-c2cn([C@@H]3O[C@H](CO)C[C@H]3O)c3ncnc(N)c23)cc1C`: 16, 1.37 µM and 22.3 µM.
In the same order, the values of `Nc1ncnc2c1c(-c1ccc(Cl)c(Cl)c1)cn2[C@@H]1O[C@H](CO)C[C@H]1O` are 230, 0.059 µM and 13.6 µM.
The matching figures for `Nc1ncnc2c1c(-c1ccc([N+](=O)[O-])cc1)cn2[C@@H]1O[C@H](CO)C[C@H]1O`: greater than 53, 1.21 µM and greater than 64 µM.
Regarding `Nc1ncnc2c1c(-c1ccc(F)c(F)c1)cn2[C@@H]1O[C@H](CO)C[C@H]1O`, the selectivity ratio in data set [1] was greater than 190. The figures for the EC50 (in the data set with Trypanosoma cruzi; in data set [2]) were 0.33 µM and greater than 64 µM, respectively.
The matching figures for `Nc1ncnc2c1ncn2[C@@H]1O[C@H](CO)C[C@H]1O` [CORDYCEPIN]: greater than 25, 2.51 µM and greater than 64 µM.
In the same order, the values of `Cc1cccc(-c2cn([C@@H]3O[C@H](CO)C[C@H]3O)c3ncnc(N)c23)c1` are greater than 12, 5.15 µM and greater than 64 µM.
